# Laboratory results from patent publication US4299767A, “Benzodiazepine derivatives” (Hoffmann-La Roche Inc., priority 1978, dated 1981).
# Key:
# [1] = acute toxicity, single oral administration to rats; conditions: rat, in vivo, p.o.
# Text: (§1) The following Table contains results obtained with the aforementioned particularly preferred compounds inhibiting the intestinal resorption of cholesterol. For each of these compounds there are given the dose(s) administered (in μMol/kg p.o) as well as the cholesterol recovery (CHOREC), expressed in % of controls. Moreover, the Table contains data relating to the acute toxicity of the compounds investigated (LD 50 in mg/kg in the case of a single oral administration to rats): […]
# [2] = system: intestinal resorption of cholesterol; assay: inhibition of the intestinal resorption of cholesterol (cholesterol recovery, CHOREC); assay type: in vivo, normal female Fullinsdorf albino rats; conditions: rats
# Procedure: The compounds to be tested are administered to groups of 6 normal female Fullinsdorf albino rats (body weight about 70 g) by oral intubation. This is followed immediately by oral intubation of a test meal containing radioactive cholesterol. Consecutively, feces are collected for three days, freeze dried and pulverized. An aliquot is burned for evaluation of fecal radioactivity. Controls excrete about 40-50% of the dietary radioactive cholesterol called cholesterol recovery (CHOREC) and arbitrarily set 100%. Animals treated with a substance inhibiting the intestinal resorption of cholesterol show a higher excretion of radioactive cholesterol in comparison with controls. The cholesterol recovery (CHOREC) of treated animals is expressed in % of controls.
# as §1
structure (smiles),measurement,setting,value
"CC1N=C(c2ccccc2Cl)c2c(ccc(NC(=O)NCCO)c2Br)N(C)C1=O (racemic) [Example 48, rac-1-[6-bromo-5-(o-chlorophenyl)-2,3-dihydro-1,3-dimethyl-2-oxo-2H-1,4-benzodiazepin-7-yl]-3-(2-hydroxyethyl)urea]",LD50,[1],> 5000 mg/kg
same,"cholesterol recovery (CHOREC), in % of controls",[2]; 10 μMol/kg p.o.,150%
same,"cholesterol recovery (CHOREC), in % of controls",[2]; 30 μMol/kg p.o.,157%
same,"cholesterol recovery (CHOREC), in % of controls",[2]; 100 μMol/kg p.o.,168%
same,"cholesterol recovery (CHOREC), in % of controls",[2]; 1000 μMol/kg p.o.,187%
"CC1N=C(c2ccccc2Cl)c2c(ccc(NC(=O)NCCO)c2Cl)N(C)C1=O (racemic) [Example 49, rac-1-[6-chloro-5-(o-chlorophenyl)-2,3-dihydro-1,3-dimethyl-2-oxo-1H-1,4-benzodiazepin-7-yl]-3-(2-hydroxyethyl)urea]",LD50,[1],> 5000 mg/kg
same,"cholesterol recovery (CHOREC), in % of controls",[2]; 1000 μMol/kg p.o.,188%
"CC1N=C(c2ccccc2F)c2c(ccc(NC(=O)NCCO)c2Br)N(C)C1=O (racemic) [Example 50, rac-1-[6-bromo-5-(o-fluorophenyl)-2,3-dihydro-1,3-dimethyl-2-oxo-1H-1,4-benzodiazepin-7-yl]-3-(2-hydroxyethyl)urea]",LD50,[1],> 5000 mg/kg
same,"cholesterol recovery (CHOREC), in % of controls",[2]; 10 μMol/kg p.o.,132%
same,"cholesterol recovery (CHOREC), in % of controls",[2]; 30 μMol/kg p.o.,160%
same,"cholesterol recovery (CHOREC), in % of controls",[2]; 100 μMol/kg p.o.,155%
same,"cholesterol recovery (CHOREC), in % of controls",[2]; 300 μMol/kg p.o.,169%
same,"cholesterol recovery (CHOREC), in % of controls",[2]; 1000 μMol/kg p.o.,189%
"CN1C(=O)CN=C(c2ccccc2F)c2c1ccc(NC(=O)N1CCOCC1)c2Cl [Example 51, N-[6-chloro-5-(o-fluorophenyl)-2,3-dihydro-1-methyl-2-oxo-1H-1,4-benzodiazepin-7-yl]-4-morpholinecarboxamide]",LD50,[1],1250 to 2500 mg/kg
same,"cholesterol recovery (CHOREC), in % of controls",[2]; 1000 μMol/kg p.o.,186%
